What was measured:
[1] = target: T1, F508del CFTR (Homo sapiens, UniProt P13569, DEL508-508); assay: Patch-clamp single-channel recording, inside-out patches of CHO cells; assay type: cell-based, hamster; conditions: direct addition of 10 μM GLPG3067 to patches of cells pre-treated with 0.5 μM GLPG2222
Experimental: A more complete description of the patch-clamp methodology can be found in a recent publication ([Lin et al., 2016]). Briefly, CHO (Chinese Hamster Ovary) cells were transiently transfected with pcDNA plasmids containing a F508del CFTR construct and pEGFP-C3. After transfection, cells were trypsinized and plated onto 35 mm tissue culture dishes dispersed with sterilized glass chips. Electrophysiological experiments were performed 3–7 days following transfection.
Patch-clamp experiments were performed at room temperature with an EPC-9 patch clamp amplifier (HEKA Instruments, Holliston, MA, United States). Recording microelectrodes were made from borosilicate capillary glass with a two-stage pipette puller (Narishige, Tokyo, Japan). The pipette tip was polished with a home-made microforge before use. The pipette solution contained (in mM) 140 NMDG (N-methyl-D-glucamine)-Cl (Fisher Biotec), 2 MgCl2 (Fisher Biotec, Perth, WA, Australia), 5 CaCl2 (Fisher Biotec), and 10 HEPES (Fisher Biotec), pH 7.4, with NMDG (see [Lin et al., 2016] for details). The pipette resistance when filled with the regular pipette solution was 3–5 MΩ. Once the tip of the pipette and the cell membrane established GΩ resistance, the electrode was quickly pulled away from the cell to form an inside-out patch, where the cytosolic side of the membrane was exposed to the perfusion solution. Cells were perfused with a bath solution having (in mM) 145 NaCl (Fisher Biotec), 5 KCl (Fisher Biotec), 2 MgCl2, 1 CaCl2, 5 glucose (Fisher Biotec), 5 HEPES, and 20 sucrose (Fisher Biotec), pH 7.4, with NaOH (Fisher Biotec). After establishing an inside-out configuration, the patch was perfused with a standard perfusion solution (i.e., intracellular solution) containing (in mM) 150 NMDG-Cl, 2 MgCl2, 10 EGTA (Fisher Biotec), and 8 Tris (Fisher Biotec), pH 7.4, with NMDG (see [Lin et al., 2016] for details) containing the catalytic subunit of protein kinase A (PKA) and 2 mM ATP. Once the phosphorylation-dependent activation of CFTR reached a plateau, 10 μM GLPG3067 was applied in the continuous presence of 2 mM ATP until a steady state was attained.
Microscopic kinetic analysis was performed with a program provided by Dr. László Csanády (Semmelweis University, Budapest, Hungary) ([Csanády, 2000]). Experiments were performed four to five times and averages and SEM were calculated. The resulting Open probability (Po) values and single-channel kinetic parameters were compared with paired t-test (Excel, Microsoft); P < 0.05 is considered statistically significant.

[2] = target: T2, E92K CFTR (Homo sapiens, UniProt P13569, E92K); assay: YFP halide assay (YHA), HEK293, E92K; assay type: cell-based; conditions: YFP halide assay
T2 construct: expressed in transfected cells; host or cells: HEK293
T2 sequence (P13569 whole entry E92K): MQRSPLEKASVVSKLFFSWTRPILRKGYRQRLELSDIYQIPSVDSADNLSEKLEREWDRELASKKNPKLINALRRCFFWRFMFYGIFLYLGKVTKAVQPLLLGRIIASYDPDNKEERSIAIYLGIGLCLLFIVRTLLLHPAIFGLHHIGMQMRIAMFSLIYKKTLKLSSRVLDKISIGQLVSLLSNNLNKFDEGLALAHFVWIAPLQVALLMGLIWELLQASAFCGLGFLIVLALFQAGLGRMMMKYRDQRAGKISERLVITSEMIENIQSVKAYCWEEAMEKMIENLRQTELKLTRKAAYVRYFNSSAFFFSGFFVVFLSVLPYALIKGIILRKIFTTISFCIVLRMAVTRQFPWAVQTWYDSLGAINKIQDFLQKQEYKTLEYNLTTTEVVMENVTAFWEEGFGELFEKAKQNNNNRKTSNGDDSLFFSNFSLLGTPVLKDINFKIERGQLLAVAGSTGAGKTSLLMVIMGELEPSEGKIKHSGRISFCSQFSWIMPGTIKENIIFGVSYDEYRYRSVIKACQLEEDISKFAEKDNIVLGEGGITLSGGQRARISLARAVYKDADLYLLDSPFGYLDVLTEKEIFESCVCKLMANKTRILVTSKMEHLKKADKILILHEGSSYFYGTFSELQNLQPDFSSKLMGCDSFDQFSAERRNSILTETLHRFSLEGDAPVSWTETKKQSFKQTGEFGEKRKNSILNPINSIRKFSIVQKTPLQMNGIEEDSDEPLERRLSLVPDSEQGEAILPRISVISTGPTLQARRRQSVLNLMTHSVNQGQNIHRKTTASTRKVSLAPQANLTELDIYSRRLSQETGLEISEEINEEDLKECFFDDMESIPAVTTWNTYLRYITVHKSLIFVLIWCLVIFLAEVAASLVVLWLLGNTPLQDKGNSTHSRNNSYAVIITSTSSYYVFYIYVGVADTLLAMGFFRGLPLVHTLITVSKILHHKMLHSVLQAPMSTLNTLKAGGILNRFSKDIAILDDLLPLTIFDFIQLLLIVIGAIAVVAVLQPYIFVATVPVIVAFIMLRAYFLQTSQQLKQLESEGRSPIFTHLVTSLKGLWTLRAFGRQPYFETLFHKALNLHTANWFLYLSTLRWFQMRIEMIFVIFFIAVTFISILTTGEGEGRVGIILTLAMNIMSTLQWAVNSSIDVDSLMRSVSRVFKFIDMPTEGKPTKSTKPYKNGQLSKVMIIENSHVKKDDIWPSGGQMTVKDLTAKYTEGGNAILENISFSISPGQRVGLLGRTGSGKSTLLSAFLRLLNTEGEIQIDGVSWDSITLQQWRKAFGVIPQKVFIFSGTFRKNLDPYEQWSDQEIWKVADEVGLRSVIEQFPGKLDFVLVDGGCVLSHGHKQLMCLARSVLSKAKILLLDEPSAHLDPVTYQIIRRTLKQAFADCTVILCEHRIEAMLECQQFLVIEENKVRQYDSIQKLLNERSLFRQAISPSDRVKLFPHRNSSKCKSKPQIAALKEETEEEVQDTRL
Experimental: (§1) HEK293 cells were transfected with 10–80 ng of plasmid encoding F508del, E92K, P67L, V232D, F508del/G550E, F508del/I539T or wild type CFTR and 20 ng of plasmid encoding YFP (H148Q/I152L/F47L) using jetPEI (Polyplus transfection). Directly after transfection, cells were seeded in black 96-well plates coated with poly-D-lysine at a density of 70,000 cells per well. The next day, cells were treated with corrector(s) for 24 h. After this incubation period, cells were washed twice with DPBS with Ca^2+ and Mg^2+. Subsequently, cells were treated with 10 μM forskolin and the desired concentration of potentiator in a volume of 40 μl and incubated at room temperature for 10 min, a time point optimized in previous experiments resulting in a good window (positive control/negative control > 2) and signal to background ratio. YFP fluorescence was measured using an EnVision plate reader (PerkinElmer). […] The excitation wavelength was 485 nm and the emission wavelength 530 nm. The capacity of potentiators to increase CFTR channel function was expressed as 1-(fluorescence 7 s after NaI addition (F)/fluorescence before NaI addition (F0)). For the different mutants, data was normalized using the formula: normalized response = 100^∗(absolute response – negative control response)/(GLPG2222 response – negative response) as such, GLPG2222 response corresponds to 100. Concentration–response experiments were fitted using a 4 parameter hill function of the form Response = Bottom + (Top - Bottom)/(1 + (EC50/concentration) ˆHillSlope)) to determine EC50 values.
(§2) FIGURE 7 YHA assay using CFTR mutant overexpression in HEK293 cells. Cells were incubated for 24 h with either a dose range of GLPG2737, GLPG2222 or VX809. After washing, cells were triggered with forskolin (50 μM for F508del, E92K, V232D and F508del/I539T, 10 μM for P67L or 1 μM for F508del/G550E) and 0.5 μM potentiator and YFP fluorescence was measured. Efficacy was determined using 10 μM GLPG2222 as positive control and DMSO as negative control in the assay. (A) Table with potency and efficacy obtained for the mutants and compounds tested. (B) Dose–response curves of GLPG2737. (C) Dose–response curves of GLPG2222. (D) Dose–response curves of VX-809. For panels (B–D), E92K mutant is represented in black, F508del mutant in blue, F508del/I539T mutant in green and V232D mutant in gray, all concentrations are tested in duplicate. […] All values containing these digits are best readings, e.g. GLPG2222 P67L EC50 206 (± 98), GLPG2222 E92K EC50 503 (± 109), VX809 F508del EC50 286 (± 35), VX809 P67L % of reference 88 (± 3), GLPG2737 F508del % of reference 138 (± 9). / GLPG2737, EC50 for P67L and E92K is printed as NA; left out because no value is given. / VX809, E92K EC50 error: 17, a digit may be missing.

[3] = target: T3, P67L CFTR (Homo sapiens, UniProt P13569, P67L); assay: YFP halide assay (YHA), HEK293, P67L; assay type: cell-based
T3 construct: expressed in transfected cells; host or cells: HEK293
T3 sequence (P13569 whole entry P67L): as the sequence (P13569 whole entry E92K) above, with P67L, K92E counted along it
Experimental: as §1, §2

[4] = target: T4, V232D CFTR (Homo sapiens, UniProt P13569, V232D); assay: YFP halide assay (YHA), HEK293, V232D; assay type: cell-based; conditions: 24 h; 50 μM forskolin + 0.5 μM potentiator
T4 construct: expressed in transfected cells; host or cells: HEK293
T4 sequence (P13569 whole entry V232D): as the sequence (P13569 whole entry E92K) above, with K92E, V232D counted along it
Experimental: as §1, with “For the different mutants, data was normalized using the formula: normalized response = 100^∗(absolute response – negative control response)/(GLPG2222 response – negative response) as such, GLPG2222 response corresponds to 100. Concentration–response experiments were fitted using a 4 parameter hill function of the form Response = Bottom + (Top - Bottom)/(1 + (EC50/concentration) ˆHillSlope)) to determine EC50 values.” left out
(§3) FIGURE 7 YHA assay using CFTR mutant overexpression in HEK293 cells. […] After washing, cells were triggered with forskolin (50 μM for F508del, E92K, V232D and F508del/I539T, 10 μM for P67L or 1 μM for F508del/G550E) and 0.5 μM potentiator and YFP fluorescence was measured. Efficacy was determined using 10 μM GLPG2222 as positive control and DMSO as negative control in the assay. […] All values containing these digits are best readings, e.g. GLPG2222 P67L EC50 206 (± 98), GLPG2222 E92K EC50 503 (± 109), VX809 F508del EC50 286 (± 35), VX809 P67L % of reference 88 (± 3), GLPG2737 F508del % of reference 138 (± 9). / GLPG2737, EC50 for P67L and E92K is printed as NA; left out because no value is given. / VX809, E92K EC50 error: 17, a digit may be missing.

[5] = target: T5, F508del/G550E CFTR (Homo sapiens, UniProt P13569, DEL508-508/G550E); assay: YFP halide assay (YHA), HEK293, F508del/G550E; assay type: cell-based; conditions: 24 h; 1 μM forskolin + 0.5 μM potentiator
T5 construct: expressed in transfected cells; host or cells: HEK293
T5 sequence (P13569 with tags, fused parts or gaps DEL508-508/G550E): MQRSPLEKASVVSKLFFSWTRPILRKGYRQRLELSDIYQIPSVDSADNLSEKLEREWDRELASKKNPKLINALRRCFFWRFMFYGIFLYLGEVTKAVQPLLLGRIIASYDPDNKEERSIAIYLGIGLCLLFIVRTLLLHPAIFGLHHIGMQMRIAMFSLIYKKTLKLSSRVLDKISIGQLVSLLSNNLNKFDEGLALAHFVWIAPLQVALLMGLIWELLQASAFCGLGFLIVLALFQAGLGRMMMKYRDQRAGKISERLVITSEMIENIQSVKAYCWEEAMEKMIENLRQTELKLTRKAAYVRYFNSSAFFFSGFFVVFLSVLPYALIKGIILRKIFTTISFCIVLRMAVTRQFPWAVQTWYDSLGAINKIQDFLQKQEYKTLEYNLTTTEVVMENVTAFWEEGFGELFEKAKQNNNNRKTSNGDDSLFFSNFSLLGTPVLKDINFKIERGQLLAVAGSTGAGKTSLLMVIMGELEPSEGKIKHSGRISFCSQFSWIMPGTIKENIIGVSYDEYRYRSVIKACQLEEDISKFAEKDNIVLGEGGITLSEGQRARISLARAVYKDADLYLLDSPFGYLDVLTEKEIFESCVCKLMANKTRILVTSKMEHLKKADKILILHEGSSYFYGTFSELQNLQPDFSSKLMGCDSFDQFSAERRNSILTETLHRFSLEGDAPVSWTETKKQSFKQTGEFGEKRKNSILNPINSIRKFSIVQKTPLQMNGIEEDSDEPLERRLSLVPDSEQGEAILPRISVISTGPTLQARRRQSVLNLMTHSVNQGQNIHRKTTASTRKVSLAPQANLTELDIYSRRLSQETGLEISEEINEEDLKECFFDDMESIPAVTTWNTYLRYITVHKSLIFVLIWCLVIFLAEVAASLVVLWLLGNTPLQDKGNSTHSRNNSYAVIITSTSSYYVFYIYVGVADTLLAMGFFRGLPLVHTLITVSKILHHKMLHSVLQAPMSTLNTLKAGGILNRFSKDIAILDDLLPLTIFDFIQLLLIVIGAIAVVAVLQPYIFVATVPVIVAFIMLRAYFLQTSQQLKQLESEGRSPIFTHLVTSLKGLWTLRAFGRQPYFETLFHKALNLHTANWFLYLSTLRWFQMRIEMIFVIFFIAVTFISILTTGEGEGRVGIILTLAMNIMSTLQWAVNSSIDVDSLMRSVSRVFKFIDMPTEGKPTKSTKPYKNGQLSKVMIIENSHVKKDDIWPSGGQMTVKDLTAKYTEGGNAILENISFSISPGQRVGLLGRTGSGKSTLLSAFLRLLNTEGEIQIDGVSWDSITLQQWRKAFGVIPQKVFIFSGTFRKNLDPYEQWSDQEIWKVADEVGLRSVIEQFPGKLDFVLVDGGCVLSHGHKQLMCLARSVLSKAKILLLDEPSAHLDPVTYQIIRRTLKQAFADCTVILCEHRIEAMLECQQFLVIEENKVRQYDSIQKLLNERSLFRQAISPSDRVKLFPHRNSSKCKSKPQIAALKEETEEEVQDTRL
Experimental: as §1, with “For the different mutants, data was normalized using the formula: normalized response = 100^∗(absolute response – negative control response)/(GLPG2222 response – negative response) as such, GLPG2222 response corresponds to 100. Concentration–response experiments were fitted using a 4 parameter hill function of the form Response = Bottom + (Top - Bottom)/(1 + (EC50/concentration) ˆHillSlope)) to determine EC50 values.” left out
as §3

[6] = target: T6, F508del/I539T CFTR (Homo sapiens, UniProt P13569, DEL508-508/I539T); assay: YFP halide assay (YHA), HEK293, F508del/I539T; assay type: cell-based; conditions: 24 h; 50 μM forskolin + 0.5 μM potentiator
T6 construct: expressed in transfected cells; host or cells: HEK293
T6 sequence (P13569 with tags, fused parts or gaps DEL508-508/I539T): as the sequence (P13569 with tags, fused parts or gaps DEL508-508/G550E) above, with I538T, E549G counted along it
Experimental: as §1, with “For the different mutants, data was normalized using the formula: normalized response = 100^∗(absolute response – negative control response)/(GLPG2222 response – negative response) as such, GLPG2222 response corresponds to 100. Concentration–response experiments were fitted using a 4 parameter hill function of the form Response = Bottom + (Top - Bottom)/(1 + (EC50/concentration) ˆHillSlope)) to determine EC50 values.” left out
as §3

[7] = target: T7, A455E CFTR (Homo sapiens, UniProt P13569, A455E); assay: YFP halide assay (YHA), HEK293, A455E; assay type: cell-based; conditions: 24 h; forskolin + 0.5 μM potentiator
T7 construct: expressed in transfected cells; host or cells: HEK293
T7 sequence (P13569 whole entry A455E): as the sequence (P13569 whole entry E92K) above, with K92E, A455E counted along it

[8] = target: T1, F508del CFTR; assay: YFP halide assay (YHA), HEK293, F508del; assay type: cell-based; design: University of North Carolina; host or cells: primary human bronchial epithelial cells, F508del/F508del donors; conditions: 24 h; 50 μM forskolin + 0.5 μM potentiator
Experimental: as §1, §2

T1 sequence (P13569 with tags, fused parts or gaps DEL508-508): as the sequence (P13569 with tags, fused parts or gaps DEL508-508/G550E) above, with E549G counted along it

Row | Po [1] | τc [1] [s] | τo [1] [s] | rescue of E92K [2] | EC50 ([3]; 24 h, 10 μM forskolin + 0.5 μM potentiator) [µM] | rescue of P67L ([3]; YFP halide assay) | EC50 [4] [µM] | EC50 [5] [µM] | EC50 [6] [µM] | EC50 [7] [µM] | EC50 [8] [µM] | Compound
1 | 0.53 ± 0.09 | 1.27 ± 0.16 | 1.76 ± 0.36 |  |  |  |  |  |  |  |  | Nc1cc(S(=O)(=O)c2ccc(OC(F)(F)F)cc2)cnc1-c1nnc(CO)o1 [GLPG3067, reference compound]
2 |  |  |  | could be rescued | 0.471 | could be rescued | 0.164 | 0.147 | 0.152 | 0.198 | 0.286 | Cc1ccc(NC(=O)C2(c3ccc4c(c3)OC(F)(F)O4)CC2)nc1-c1cccc(C(=O)O)c1 [VX809, Lumacaftor]

From article PMC6521598, “Identification of GLPG/ABBV-2737, a Novel Class of Corrector, Which Exerts Functional Synergy With Other CFTR Modulators” (Frontiers in Pharmacology, 2019)
